Measured values published in ChEMBL document CHEMBL4507300 (2021).

Key:
[1] = target: 5-hydroxytryptamine receptor 6 (Homo sapiens) (UniProt P50406); settings: Compound concentration 10.0 uM
[2] = system: Mast/stem cell growth factor receptor Kit (Homo sapiens), P10721 [V559D,V654A]; settings: Compound concentration 1000.0 nM
[3] = target: Casein kinase I isoform gamma-2 (Homo sapiens) (UniProt P78368); settings: Compound concentration 1000.0 nM
[4] = target: Membrane-associated tyrosine- and threonine-specific cdc2-inhibitory kinase (Homo sapiens) (UniProt Q99640); settings: Compound concentration 1000.0 nM
[5] = target: Mitogen-activated protein kinase 11 (Homo sapiens) (UniProt Q15759); settings: Compound concentration 1000.0 nM
[6] = target: LIM domain kinase 1 (Homo sapiens) (UniProt P53667); settings: Compound concentration 1000.0 nM
[7] = target: Receptor tyrosine-protein kinase erbB-2 (Homo sapiens) (UniProt P04626); settings: Compound concentration 1000.0 nM
[8] = target: Myotonin-protein kinase (Homo sapiens) (UniProt Q09013); settings: Compound concentration 1000.0 nM
[9] = target: Dual specificity mitogen-activated protein kinase kinase 4 (Homo sapiens) (UniProt P45985); settings: Compound concentration 1000.0 nM
[10] = target: Mitogen-activated protein kinase kinase kinase 13 (Homo sapiens) (UniProt O43283); settings: Compound concentration 1000.0 nM
[11] = target: D(1B) dopamine receptor (Homo sapiens) (UniProt P21918); settings: Compound concentration 10.0 uM
[12] = target: Mitogen-activated protein kinase kinase kinase 20 (Homo sapiens) (UniProt Q9NYL2); settings: Compound concentration 1000.0 nM
[13] = target: Homeodomain-interacting protein kinase 3 (Homo sapiens) (UniProt Q9H422); settings: Compound concentration 1000.0 nM
[14] = target: Serine/threonine-protein kinase 25 (Homo sapiens) (UniProt O00506); settings: Compound concentration 1000.0 nM
[15] = target: Ephrin type-A receptor 4 (Homo sapiens) (UniProt P54764); settings: Compound concentration 1000.0 nM
[16] = target: MAP kinase-activated protein kinase 5 (Homo sapiens) (UniProt Q8IW41); settings: Compound concentration 1000.0 nM
[17] = target: Receptor tyrosine-protein kinase erbB-4 (Homo sapiens) (UniProt Q15303); settings: Compound concentration 1000.0 nM
[18] = target: Beta-2 adrenergic receptor (Homo sapiens) (UniProt P07550); settings: Compound concentration 10.0 uM
[19] = target: Serine/threonine-protein kinase NLK (Homo sapiens) (UniProt Q9UBE8); settings: Compound concentration 1000.0 nM
[20] = target: MAP kinase-activated protein kinase 2 (Homo sapiens) (UniProt P49137); settings: Compound concentration 1000.0 nM
[21] = target: Serine/threonine-protein kinase Nek1 (Homo sapiens) (UniProt Q96PY6); settings: Compound concentration 1000.0 nM
[22] = target: Tyrosine-protein kinase ITK/TSK (Homo sapiens) (UniProt Q08881); settings: Compound concentration 1000.0 nM
[23] = target: Serine/threonine-protein kinase N2 (Homo sapiens) (UniProt Q16513); settings: Compound concentration 1000.0 nM
[24] = target: Serine/threonine-protein kinase pim-2 (Homo sapiens) (UniProt Q9P1W9); settings: Compound concentration 1000.0 nM
[25] = target: Protein-tyrosine kinase 6 (Homo sapiens) (UniProt Q13882); settings: Compound concentration 1000.0 nM
[26] = system: Mast/stem cell growth factor receptor Kit (Homo sapiens), P10721 [L576P]; settings: Compound concentration 1000.0 nM
[27] = target: Activin receptor type-2A (Homo sapiens) (UniProt P27037); settings: Compound concentration 1000.0 nM
[28] = target: Sodium-dependent dopamine transporter (Homo sapiens) (UniProt Q01959); settings: Compound concentration 10.0 uM
[29] = target: Cyclin-dependent kinase 11B (Homo sapiens) (UniProt P21127); settings: Compound concentration 1000.0 nM
[30] = target: Delta-type opioid receptor (Homo sapiens) (UniProt P41143); settings: Compound concentration 10.0 uM
[31] = system: Epidermal growth factor receptor (Homo sapiens), P00533 [L858R]; settings: Compound concentration 1000.0 nM
[32] = target: Ephrin type-B receptor 3 (Homo sapiens) (UniProt P54753); settings: Compound concentration 1000.0 nM
[33] = system: Epidermal growth factor receptor (Homo sapiens), P00533 [G719S]; settings: Compound concentration 1000.0 nM
[34] = target: Activin receptor type-2B (Homo sapiens) (UniProt Q13705); settings: Compound concentration 1000.0 nM
[35] = target: Ribosomal protein S6 kinase alpha-4 (Homo sapiens) (UniProt O75676); settings: Compound concentration 1000.0 nM
[36] = target: Ephrin type-A receptor 8 (Homo sapiens) (UniProt P29322); settings: Compound concentration 1000.0 nM
[37] = target: Serine/threonine-protein kinase VRK2 (Homo sapiens) (UniProt Q86Y07); settings: Compound concentration 1000.0 nM
[38] = target: Aurora kinase B (Homo sapiens) (UniProt Q96GD4); settings: Compound concentration 1000.0 nM
[39] = target: Ribosomal protein S6 kinase alpha-6 (Homo sapiens) (UniProt Q9UK32); settings: Compound concentration 1000.0 nM
[40] = target: Casein kinase I isoform epsilon (Homo sapiens) (UniProt P49674); settings: Compound concentration 1000.0 nM
[41] = target: Calcium/calmodulin-dependent protein kinase type II subunit beta (Homo sapiens) (UniProt Q13554); settings: Compound concentration 1000.0 nM
[42] = target: 5-hydroxytryptamine receptor 1A (Homo sapiens) (UniProt P08908); settings: Compound concentration 10.0 uM
[43] = target: Serine/threonine-protein kinase Nek3 (Homo sapiens) (UniProt P51956); settings: Compound concentration 1000.0 nM
[44] = target: Death-associated protein kinase 2 (Homo sapiens) (UniProt Q9UIK4); settings: Compound concentration 1000.0 nM
[45] = target: Mitogen-activated protein kinase kinase kinase 9 (Homo sapiens) (UniProt P80192); settings: Compound concentration 1000.0 nM
[46] = target: Non-receptor tyrosine-protein kinase TYK2 (Homo sapiens) (UniProt P29597); settings: Compound concentration 1000.0 nM

Sequence of MAP kinase-activated protein kinase 5 (Homo sapiens) (Q8IW41 whole entry): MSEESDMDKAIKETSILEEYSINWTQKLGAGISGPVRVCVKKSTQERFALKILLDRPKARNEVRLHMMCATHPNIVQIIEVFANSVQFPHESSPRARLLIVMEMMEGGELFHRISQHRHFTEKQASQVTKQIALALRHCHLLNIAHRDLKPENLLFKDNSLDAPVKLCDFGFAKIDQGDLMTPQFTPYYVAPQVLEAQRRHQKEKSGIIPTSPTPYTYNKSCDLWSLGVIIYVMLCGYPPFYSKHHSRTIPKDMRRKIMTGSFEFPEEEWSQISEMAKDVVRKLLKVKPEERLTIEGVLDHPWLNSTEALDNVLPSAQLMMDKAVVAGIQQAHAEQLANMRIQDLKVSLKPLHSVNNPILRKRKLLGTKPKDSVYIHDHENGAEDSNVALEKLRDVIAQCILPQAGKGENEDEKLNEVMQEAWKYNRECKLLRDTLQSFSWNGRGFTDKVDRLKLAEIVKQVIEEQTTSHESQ
Sequence of Cyclin-dependent kinase 11B (Homo sapiens) (P21127 whole entry): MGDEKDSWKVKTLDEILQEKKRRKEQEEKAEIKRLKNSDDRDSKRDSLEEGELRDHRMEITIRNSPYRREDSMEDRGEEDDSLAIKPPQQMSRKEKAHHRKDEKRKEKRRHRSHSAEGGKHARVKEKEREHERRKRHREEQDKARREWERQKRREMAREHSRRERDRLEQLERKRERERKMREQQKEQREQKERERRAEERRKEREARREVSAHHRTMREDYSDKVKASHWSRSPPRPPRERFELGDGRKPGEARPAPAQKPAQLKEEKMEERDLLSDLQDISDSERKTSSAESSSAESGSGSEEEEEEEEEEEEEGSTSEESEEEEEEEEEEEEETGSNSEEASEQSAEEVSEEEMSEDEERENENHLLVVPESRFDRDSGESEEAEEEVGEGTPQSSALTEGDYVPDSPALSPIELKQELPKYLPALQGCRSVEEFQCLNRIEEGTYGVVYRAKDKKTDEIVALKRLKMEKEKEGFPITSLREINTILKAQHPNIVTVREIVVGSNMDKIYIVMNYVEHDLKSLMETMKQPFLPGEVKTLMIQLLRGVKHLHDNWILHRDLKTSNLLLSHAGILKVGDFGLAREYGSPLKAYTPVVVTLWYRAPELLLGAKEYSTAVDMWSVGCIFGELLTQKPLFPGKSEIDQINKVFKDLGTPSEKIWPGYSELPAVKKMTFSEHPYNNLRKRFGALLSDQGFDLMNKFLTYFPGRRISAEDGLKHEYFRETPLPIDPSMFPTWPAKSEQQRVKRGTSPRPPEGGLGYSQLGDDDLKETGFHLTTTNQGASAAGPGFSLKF
Sequence of Calcium/calmodulin-dependent protein kinase type II subunit beta (Homo sapiens) (Q13554 whole entry): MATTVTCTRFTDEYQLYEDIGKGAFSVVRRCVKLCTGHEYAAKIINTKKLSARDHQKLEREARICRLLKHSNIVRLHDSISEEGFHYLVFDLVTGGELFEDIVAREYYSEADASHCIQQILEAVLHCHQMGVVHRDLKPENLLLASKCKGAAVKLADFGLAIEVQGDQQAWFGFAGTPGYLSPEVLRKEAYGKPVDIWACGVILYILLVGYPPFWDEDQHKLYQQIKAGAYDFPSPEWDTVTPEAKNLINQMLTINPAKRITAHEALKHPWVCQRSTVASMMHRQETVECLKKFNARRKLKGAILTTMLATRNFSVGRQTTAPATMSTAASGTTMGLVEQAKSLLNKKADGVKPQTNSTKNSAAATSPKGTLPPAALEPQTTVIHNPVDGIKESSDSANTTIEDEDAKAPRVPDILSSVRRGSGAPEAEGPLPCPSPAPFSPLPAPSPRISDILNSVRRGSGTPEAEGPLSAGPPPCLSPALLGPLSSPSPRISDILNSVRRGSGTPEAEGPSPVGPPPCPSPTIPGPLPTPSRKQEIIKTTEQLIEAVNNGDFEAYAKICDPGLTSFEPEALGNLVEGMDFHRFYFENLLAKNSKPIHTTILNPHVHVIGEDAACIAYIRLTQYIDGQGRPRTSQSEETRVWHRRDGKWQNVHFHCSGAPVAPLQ
Sequence of Casein kinase I isoform gamma-2 (Homo sapiens) (P78368 whole entry, looked up, canonical isoform): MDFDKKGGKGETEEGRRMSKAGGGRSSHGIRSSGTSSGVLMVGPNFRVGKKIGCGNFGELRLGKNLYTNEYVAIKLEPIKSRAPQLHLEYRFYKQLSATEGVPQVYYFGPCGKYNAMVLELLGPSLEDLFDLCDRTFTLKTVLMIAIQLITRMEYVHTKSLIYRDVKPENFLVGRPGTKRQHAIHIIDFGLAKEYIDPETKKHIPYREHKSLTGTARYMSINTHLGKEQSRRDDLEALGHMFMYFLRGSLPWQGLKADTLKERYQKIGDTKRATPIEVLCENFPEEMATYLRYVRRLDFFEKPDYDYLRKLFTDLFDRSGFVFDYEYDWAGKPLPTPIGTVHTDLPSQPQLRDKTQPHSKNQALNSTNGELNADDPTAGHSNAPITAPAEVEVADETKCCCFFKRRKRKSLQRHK
Sequence of Dual specificity mitogen-activated protein kinase kinase 4 (Homo sapiens) (P45985 whole entry): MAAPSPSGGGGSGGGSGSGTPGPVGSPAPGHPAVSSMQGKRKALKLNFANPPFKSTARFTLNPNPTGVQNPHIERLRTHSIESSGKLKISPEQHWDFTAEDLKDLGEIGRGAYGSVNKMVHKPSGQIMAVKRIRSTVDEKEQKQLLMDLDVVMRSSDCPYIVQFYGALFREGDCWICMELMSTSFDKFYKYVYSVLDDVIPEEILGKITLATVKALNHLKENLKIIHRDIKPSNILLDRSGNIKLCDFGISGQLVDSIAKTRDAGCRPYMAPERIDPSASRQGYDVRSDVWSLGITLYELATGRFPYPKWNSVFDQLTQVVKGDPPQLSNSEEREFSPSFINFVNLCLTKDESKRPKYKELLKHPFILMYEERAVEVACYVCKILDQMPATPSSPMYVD
Sequence of Mitogen-activated protein kinase 11 (Homo sapiens) (Q15759 whole entry, the tested form may be a part): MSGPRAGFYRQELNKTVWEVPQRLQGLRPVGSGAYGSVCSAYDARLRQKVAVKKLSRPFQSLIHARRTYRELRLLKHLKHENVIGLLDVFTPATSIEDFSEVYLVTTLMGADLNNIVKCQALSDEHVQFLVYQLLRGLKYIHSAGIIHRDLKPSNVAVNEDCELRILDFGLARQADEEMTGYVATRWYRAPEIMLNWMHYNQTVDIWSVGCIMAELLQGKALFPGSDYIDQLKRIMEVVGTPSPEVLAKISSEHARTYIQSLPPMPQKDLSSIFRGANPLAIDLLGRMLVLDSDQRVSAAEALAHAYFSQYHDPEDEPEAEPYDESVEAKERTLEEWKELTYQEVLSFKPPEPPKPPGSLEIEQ
Sequence of Homeodomain-interacting protein kinase 3 (Homo sapiens) (Q9H422 whole entry, looked up): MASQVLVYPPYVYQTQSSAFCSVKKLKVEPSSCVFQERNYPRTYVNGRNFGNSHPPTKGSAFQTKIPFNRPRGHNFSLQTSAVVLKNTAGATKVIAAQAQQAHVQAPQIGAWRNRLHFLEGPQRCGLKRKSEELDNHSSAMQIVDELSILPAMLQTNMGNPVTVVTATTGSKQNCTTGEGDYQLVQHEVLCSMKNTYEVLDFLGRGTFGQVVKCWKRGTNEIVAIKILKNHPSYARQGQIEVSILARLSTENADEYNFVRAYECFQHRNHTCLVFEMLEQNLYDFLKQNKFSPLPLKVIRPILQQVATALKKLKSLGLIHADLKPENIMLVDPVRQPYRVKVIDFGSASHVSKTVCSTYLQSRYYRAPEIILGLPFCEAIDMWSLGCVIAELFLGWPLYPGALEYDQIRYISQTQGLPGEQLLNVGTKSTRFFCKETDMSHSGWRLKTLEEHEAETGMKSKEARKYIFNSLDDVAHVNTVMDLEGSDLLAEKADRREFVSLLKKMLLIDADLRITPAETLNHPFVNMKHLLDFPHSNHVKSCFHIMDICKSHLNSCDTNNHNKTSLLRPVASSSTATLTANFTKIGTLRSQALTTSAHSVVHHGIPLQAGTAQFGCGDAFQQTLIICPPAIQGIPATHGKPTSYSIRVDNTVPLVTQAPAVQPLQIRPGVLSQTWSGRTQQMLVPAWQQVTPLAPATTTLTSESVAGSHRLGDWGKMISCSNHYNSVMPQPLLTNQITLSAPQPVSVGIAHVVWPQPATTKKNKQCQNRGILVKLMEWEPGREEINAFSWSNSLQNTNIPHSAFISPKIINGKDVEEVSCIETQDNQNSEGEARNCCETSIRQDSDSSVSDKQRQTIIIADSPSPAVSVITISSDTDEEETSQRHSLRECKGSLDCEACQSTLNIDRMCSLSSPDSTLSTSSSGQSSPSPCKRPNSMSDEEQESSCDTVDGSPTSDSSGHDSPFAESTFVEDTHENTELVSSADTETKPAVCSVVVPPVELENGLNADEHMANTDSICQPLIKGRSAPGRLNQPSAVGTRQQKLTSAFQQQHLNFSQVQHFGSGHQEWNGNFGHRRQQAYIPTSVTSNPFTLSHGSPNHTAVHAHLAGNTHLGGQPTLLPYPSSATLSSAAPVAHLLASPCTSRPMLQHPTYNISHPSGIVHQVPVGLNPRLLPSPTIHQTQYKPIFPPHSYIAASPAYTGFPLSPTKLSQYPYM
Sequence of Aurora kinase B (Homo sapiens) (Q96GD4 whole entry): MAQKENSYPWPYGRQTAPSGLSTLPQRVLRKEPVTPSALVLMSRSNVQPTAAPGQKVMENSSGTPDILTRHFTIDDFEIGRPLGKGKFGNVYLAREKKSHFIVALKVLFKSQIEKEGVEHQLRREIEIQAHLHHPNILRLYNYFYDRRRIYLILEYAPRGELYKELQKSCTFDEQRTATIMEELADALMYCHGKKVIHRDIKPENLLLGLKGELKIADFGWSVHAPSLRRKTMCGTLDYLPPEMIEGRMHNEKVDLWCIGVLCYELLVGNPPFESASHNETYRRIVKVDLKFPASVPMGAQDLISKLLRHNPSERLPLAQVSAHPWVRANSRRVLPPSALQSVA
Sequence of Serine/threonine-protein kinase pim-2 (Homo sapiens) (Q9P1W9 whole entry, looked up): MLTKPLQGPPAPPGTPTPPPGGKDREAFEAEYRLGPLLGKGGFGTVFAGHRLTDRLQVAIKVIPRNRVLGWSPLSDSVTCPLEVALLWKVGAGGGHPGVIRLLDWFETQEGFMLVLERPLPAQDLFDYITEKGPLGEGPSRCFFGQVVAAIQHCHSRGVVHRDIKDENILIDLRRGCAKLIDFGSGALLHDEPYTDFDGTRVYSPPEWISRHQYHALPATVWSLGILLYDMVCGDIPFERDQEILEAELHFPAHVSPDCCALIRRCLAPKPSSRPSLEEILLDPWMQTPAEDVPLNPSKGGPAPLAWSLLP

COc1cccc(CNC(=O)c2nc3scc(COCc4ccc(C(=O)O)cc4)c3c(=O)[nH]2)c1 [T-26c]
inactive: inhibition [1] 15.8% | residual activity [2] 98% | residual activity [3] 97.2% | residual activity [4] 88% | residual activity [5] 100% | residual activity [6] 96.8% | residual activity [7] 97.2% | residual activity [8] 85.4% | residual activity [9] 59.7% | residual activity [10] 61.5% | inhibition [11] 11.9% | residual activity [12] 85.5% | residual activity [13] 73.7% | residual activity [14] 100% | residual activity [15] 91.1% | residual activity [16] 93.8% | residual activity [17] 86.1% | inhibition [18] 25.4% | residual activity [19] 80.3% | residual activity [20] 64.3% | residual activity [21] 100% | residual activity [22] 86.8% | residual activity [23] 98% | residual activity [24] 100% | residual activity [25] 82.5% | residual activity [26] 100% | residual activity [27] 92.9% | inhibition [28] 9.28% | residual activity [29] 85.4% | inhibition [30] -5.04% | residual activity [31] 88.3% | residual activity [32] 85.4% | residual activity [33] 100% | residual activity [34] 100% | residual activity [35] 82.3% | residual activity [36] 82.5% | residual activity [37] 74.2% | residual activity [38] 71.3% | residual activity [39] 63.5% | residual activity [40] 100% | residual activity [41] 96.8% | inhibition [42] 7.7% | residual activity [43] 78.1% | residual activity [44] 83.1% | residual activity [45] 100% | residual activity [46] 79.8%
